For one assay, the system named is TxA2. Particulars: Thrombosis Research, 35, 379-395, 1984; cited from earlier work.
The subject of assay [1] is arachidonic acid-induced pulmonary embolism. As to the kind of experiment: Inhibiting effect on arachidonic acid-induced pulmonary embolism (in vivo). Particulars: Mus musculus; dose required to shorten the recovery time by at least 15% as compared with the control group; oral, 3 hours before arachidonic acid 125 mg/kg, mice. Further details: species or system ddy-male mice. The protocol:
Inhibiting effect on arachidonic acid-induced pulmonary embolism (in vivo):
A test compound in an aqueous carboxymethylcellulose solution (20 ml/kg) was orally administered to ddy-male mice fasted overnight. Three hours later, arachidonic acid (125 mg/kg) was injected to the tail vein of mice to induce pulmonary embolism, and the recovery time (minute) of locomotive activity of the mice was compared with that of a control group of mice to which a 0.25% aqueous CMC solution was administered instead of the test compound solution. The inhibiting effect of each test compound on arachidonic acid-induced pulmonary embolism was estimated in terms of the dose required to shorten the recovery time by at least 15% as compared with the control group.

Here are results for 3 compounds from patent publication US5190975A, “Indan derivatives used for treating thromboses or asthma” (Tanabe Seiyaku Co., Ltd., priority 1987, dated 1993).

For `O=C(O)COc1ccc(CCNS(=O)(=O)c2ccccc2)cc1` [Control, 4-(2-Benzensulfonylaminoethyl)phenoxyacetic acid], the TxA2-antagonistic activity result with TxA2 is recorded as “has TxA2 -antagonistic activity”. In assay [1], the ED15 worked out at 30 mg/kg.

In assay [1], `O=C(O)CCNC(=O)Cc1ccc2c(c1)CC(NS(=O)(=O)c1ccc(Cl)cc1)C2` (stereo not shown) [Example 1] returned an ED15 of 0.03 mg/kg.

The compound `O=C(O)CCCNC(=O)Cc1ccc2c(c1)CC(NS(=O)(=O)c1ccc(Cl)cc1)C2` (stereo not shown) [Example 2] came in with an ED15 in assay [1] of 0.03 mg/kg.
